# Laboratory results from patent US6710090B2, “Inhibitory or blocking agents of molecular generating and/or inducing functions” (priority 1994, dated 2004).
# Legend:
# vasopressin = target: T1, vasopressin (Homo sapiens, UniProt P01185); assay: Physiological function of vasopressin treated with Yoshixol, blood pressure; type: in vivo; conditions: rabbit, intravenous vasopressin 100 ng/Kg treated with Yoshixol 4 μl; untreated vasopressin 15-25 mmHg
# T1 construct: Effect on Physiological Function of Vasopressin and Insulin as Peptides; purchased Sigma Co. Saint Louis, Mo., USA
# Protocol: Each vasopressin and insulin has a physiological effect such as a rise of blood pressure and a fall of sugar level in blood respectively. An effect of Yoshixol on these physiological functions was investigated and compared by injection of each hormone without or with treatment with Yoshixol in rabbit in vivo. When vasopressin (100 ng/Kg, Sigma Co. Saint Louis, Mo., USA) without treatment with Yoshixol was injected intravenously, blood pressure increased by 15-25 mmHg so that this increased level was maintained for about 25 minutes. But, vasopressin (100 ng/Kg) treated with Yoshixol (4 μl) caused a increase in blood pressure of only about 5 mmHg (referred FIG. 6).
# [1] = Acute and chronic toxicity, intravenous; type: in vivo, rabbit and dog
# Protocol: In order to investigate a toxicity in vivo, the solution which was mixed 50 μl/Kg of Yoshixol with 1 ml of 20% glucose solution was administered intravenously in unanesthetized animals (rabbit and dog). […] Even though intravenous administration alone was done, it may be confirmed that it is safety.
# [2] = tested on: single strand DNA, double strand DNA and mRNA of E. coli bacteriophage; assay: Antiviral effect, E. coli bacteriophage structure and infection, electron microscopes; type: cell-based
# Protocol: In order to investigate the effect on virus, changes in structure of single strand DNA, double strand DNA and mRNA of E. coli bacteriophage (1 ml of 1 mol solution), which were prepared as non-treated sample and treated sample with 4 μl of Yoshixol, were observed by scanning and transmission electron microscopes. In addition, according a general bacteriological technique, changes in proliferation and in morphological aspect (by scanning and transmission electron microscopes) of E. Coli, which was infected by single strand DNA, double strand DNA or mRNA, were investigated before and after treatment of each phage with Yoshixol. As treated samples, 4 μl of Yoshixol was added in 1 ml of each phage solution which concentration was adjusted to 1 mol. […] In addition, an effect of Yoshixol on chicken myeloblastosis virus (AMV) reverse transcriptase (Gibco Co. Getesburg, Md., USA) was investigated by measuring amount of cDNA synthesis, which was amplified by PCR of RNA(5 μg) and AMV reverse transcriptase (25 units). As treated group, 0.01 μl of Yoshixol was added to 25 units sample of the AMV reverse transcriptase. Thus, the expected production of cDNA was obtained in the non-treated group, however, the amount of cDNA production decreased to 10% of the expected one when Yoshixol was treated (referred FIG. 15).
# [3] = Stability of solution under light; type: physicochemical; conditions: sealed glass tube, stocked under room light, 6 months after the synthesis
# From the text: <Stability of Solution Under Light>
# [4] = rabbit and dog, 50 μl/Kg intravenously
smiles,measurement,setting,value
"C=C1CC(C)(C)C=CC1=O [Yoshixol, 4,4-dimethyl-6-methylene-2-cyclohexen-1-one]",increase in blood pressure,vasopressin,about 5 mmHg
same,duration of transitional signs after the administration,[1]; [4],1 to 2 min
same,platelets,[1]; [4],A change in platelets was not observed
same,"pathological findings in the vital organs, macroscopically and microscopically","[1]; rabbit and dog, 50 μl/Kg intravenously, after 1 month",any pathological findings were not observed
same,abnormal behavior,"[1]; rabbit and dog, 50 μl/Kg intravenously, observation period of 2 hours",an abnormal behavior was not found
same,abnormal behavior,"[1]; rabbit and dog, 50 μl/Kg intravenously, observed over 1 month",any abnormal behavior did not found
same,white blood cells,"[1]; rabbit and dog, 50 μl/Kg intravenously, recovery to normal level at 1 week",increased 3 days after administration
same,"examination of blood, anemia","[1]; rabbit and dog, 50 μl/Kg intravenously, recovery to the normal after 1 week",hyperchromic anemia at the maximum level occurred 3 days after administration
same,"respiration rate, blood pressure, heart rate and movements of an extremity after injection","[1]; unanesthetized rabbit and dog, 50 μl/Kg intravenously in 1 ml 20% glucose solution","transitional increase in respiration rate, increase in blood pressure and heart rate and active movements of an extremity (not convulsion)"
same,"helical and multi-dimensional structure of single strand DNA, double strand DNA and mRNA","[2]; 4 μl of Yoshixol in 1 ml phage solution (1 mol), electron microscopes",became a simple structure
same,adhesion of the phage on the bacterial surface and/or intrabacterial existence,[2]; E. coli infected with phage treated with Yoshixol,not in the treated group
same,"Changes in coloring, viscosity and odor",[3],did not change
